Test results as given in patent US8293786B2 (Alltranz Inc., priority 2007, dated 2012).

Columns and labels:
[1] = Plasma stability of cannabidiol prodrugs (bioconversion to parent drug); format: in vitro ADME; conditions: Table 20, di-prodrug in plasma; for % mono-prodrug at time (h): mono-prodrug formed
Experimental: An approximated 1 mg/mL stock solution of each prodrug was prepared in 100 μL of ethanol and 900 μL of acetonitrile. Ten (10) μL of stock was spiked into 1 mL of plasma and vortexed. The samples were kept sealed in an amber vial and samples were obtained to analyze for bioconversion to parent drug.

human abdominal skin = test: In vitro human skin permeation and skin disposition, flow-through diffusion cells (Examples 2, 2A, 2B); format: in vitro ADME
Experimental: Flow through diffusion cells were used for the permeation studies. HEPES-buffered Hanks' balanced salts containing 40% PEG 400 with gentamicin or 40% aqueous PEG 400 with gentamicin were used for the receiver compartment. Donor solution was comprised of 90:8:2 PG:H2O:IPM solution or gel formulation. […] Drug accumulation in the skin after a 24, 30 or 42 h diffusion experiment was determined as μmol/g wet tissue weight.
The skin samples used in the following experiments were obtained from abdominal reduction surgery and dermatomed to a thickness of approximately 200 μm. The skin samples used herein were frozen at −20° C. for less than six months.
One (1) L of receiver fluid was prepared by measuring 1 L of nanopure water into a graduated cylinder. 90% of the water was added to an Erlenmeyer flask. Hanks' salts (1 bottle) were added to the water along with 5.96 g of HEPES and 0.35 g of sodium bicarbonate. The pH of the solution was adjusted with 1 N sodium hydroxide solution to pH 7.4. The remaining water was added and the receiver fluid was filtered through a 0.2μ filter (Millipore, Billerica, Mass.). Fifty (50) mg of gentamicin was added to the filtered receiver fluid and 400 mL of the receiver fluid was removed and replaced with 400 mL of PEG 400.
The receiver fluid was prepared by measuring 600 mL of nanopure H2O into a graduated cylinder. The H2O was filtered through a 0.2μ filter (Millipore, Billerica, Mass.). Fifty (50) mg of gentamicin was added to the filtered H2O and 400 mL of PEG 400 was added.
The prodrugs were made up in a solution of 45:4:1 PG:H2O:IPM. For this solution, the appropriate amount of drug was weighed into a glass silanized culture tube and IPM was added, the 50 μL of PG to coat the drug, then an additional 247 μL PG was added and the donor solution was vortexed again. Finally 26 μL of water was added. The gel formulation resulted from the mixing of absolute ethanol, nanopure water, IPM, Carbopol® 980, 0.1 N sodium hydroxide solution and the respective drug.
The gel formulation was comprised of absolute ethanol, nanopure water, IPM, Carbopol® 980, 0.1 sodium hydroxide solution and respective drug. The anhydrous gel was comprised of absolute ethanol, PEG monoethyl ether 550, Klucel® hydroxypropylcellulose, and respective drug.
Dermatomed skin harvested from abdominoplasty, stored at −20° C., was used for the experiments. A PermeGear flow-through (In-Line, Hellertown, Pa.) diffusion cell system was used for the skin permeation studies.
Diffusion cells were kept at 32° C. with a circulating water bath. Human epidermal skin was arranged in the diffusion cell with stratum corneum (upper layer of skin) facing the donor compartment. The permeation area of the skin was 0.95 cm^2. The data was collected from a human skin donor with three diffusion cells per treatment.
The receiver solution was HEPES-buffered Hanks' balanced salts with gentamicin containing 40% PEG 400 at a pH of 7.4 or 40% aqueous PEG 400 and flow rate was adjusted to 0.8 mL/h. Each cell was charged with 0.10 mL of the respective drug formulation (donor solution) or 50 μL of gel formulation which was rubbed into the skin for 15 sec with a Teflon coated rod. The formulation was applied to ensure complete coverage. […]. Diffusion cells were covered with a stopper or cap for the duration of the study.
Samples were collected into scintillation vials in 3 h increments for either 24, 30, or 42 h. All the samples were stored at 4° C. until extracted. An aliquot (0.5 mL) of the diffusion sample was placed into a silanized HPLC vial and 0.5 mL of acetonitrile was added to the sample, capped and vortexed.
At the end of the experiment, the skin tissue was removed from the diffusion cell, rinsed with nanopure water, and blotted dry with a paper towel. The skin was tape stripped twice using book tape (Scotch™, 3M, St. Paul, Minn.) to remove drug formulation adhering to the tissue surface.

[2] = Table 18, 90:8:2 PG:H2O:IPM donor solution, 40% aqueous PEG 400 receiver fluid, CBD from applied prodrug
[3] = Table 18, 90:8:2 PG:H2O:IPM donor solution, 40% aqueous PEG 400 receiver fluid, mono-prodrug from applied di-prodrug
[4] = Table 18, 90:8:2 PG:H2O:IPM donor solution, 40% aqueous PEG 400 receiver fluid, prodrug applied, as total cannabidiol equivalents

C=C(C)[C@@H]1CCC(C)=C[C@H]1c1c(OC=O)cc(CCCCC)cc1OC=O [ALL00145, CBD Diformate]
% mono-prodrug at time (h) ([1]; 0 h): 40%
% mono-prodrug at time (h) ([1]; 0.5 h): 44%
% mono-prodrug at time (h) ([1]; 22 h): 23%
% mono-prodrug at time (h) ([1]; 24 h): 11%
% Di-prodrug at time (h) ([1]; 0 h): 60%
% Di-prodrug at time (h) ([1]; 0.5 h): 45%
% Di-prodrug at time (h) ([1]; 22 h): 37%
% Di-prodrug at time (h) ([1]; 24 h): 13%
30 h cumulative amt (human abdominal skin; [2]): 17.2 ± 4.5 nmol
30 h skin conc (human abdominal skin; [2]): 8.8 ± 7.0 µmol/g
Flux (human abdominal skin; [2]): 1.4 ± 0.1 nmol/cm^2/h
Lag time (human abdominal skin; [2]): 17.4 ± 3.3 h
30 h skin conc (human abdominal skin; Table 18, 90:8:2 PG:H2O:IPM donor solution, 40% aqueous PEG 400 receiver fluid, as applied compound (CBD or intact prodrug)): 3.8 ± 2.1 µmol/g
30 h cumulative amt (human abdominal skin; [3]): 17.5 ± 6.1 nmol
30 h skin conc (human abdominal skin; [3]): 23.5 ± 19.3 µmol/g
Flux (human abdominal skin; [3]): 1.5 ± 0.6 nmol/cm^2/h
Lag time (human abdominal skin; [3]): 19.0 ± 1.9 h
30 h cumulative amt (human abdominal skin; [4]): 34.7 ± 7.0 nmol
30 h skin conc (human abdominal skin; [4]): 36.1 ± 28.2 µmol/g
Flux (human abdominal skin; [4]): 2.9 ± 0.7 nmol/cm^2/h
Lag time (human abdominal skin; [4]): 17.2 ± 2.5 h
Flux enhancement (human abdominal skin; Table 18, 90:8:2 PG:H2O:IPM donor solution, 40% aqueous PEG 400 receiver fluid, total cannabidiol versus cannabidiol): 0.35
detected in the skin as (human abdominal skin; in donor solution): prodrug, mono-substituted prodrug, ALL00146, and cannabidiol
flux compared to cannabidiol (human abdominal skin; in donor solution): did not increase the flux
lag time compared to cannabidiol (human abdominal skin; in donor solution): wasn't decreased
share permeated through the skin as cannabidiol (human abdominal skin; in donor solution): approximately 50%
share permeated through the skin as mono-substituted prodrug (human abdominal skin; in donor solution): approximately 50%
total skin concentrations compared to cannabidiol (human abdominal skin; in donor solution): higher
